Legend:
Assay in all cases: relative viability (nuclei count vs DMSO), 5 days (fraction); higher = more cells survive
NCI-H358 = tested on: NCI-H358
Outline: (§1)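 Dosing by pin tool came one day after lung cancer cell lines were seeded in 1536-well plates, using either one drug or a fixed anchor-drug dose plus five library-drug doses (not always all listed) in √10 steps. After 5 days, nuclei were counted on 4× images. Relative viability is treated-well nuclei count divided by vehicle-well nuclei count, and values are medians of duplicate plates.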

NCI-H650 = tested on: NCI-H650
Outline: as §1

UMC-11 = tested on: UMC-11
Outline: as §1

NCI-H2126 = tested on: NCI-H2126
Outline: as §1

EPLC-272H = tested on: EPLC-272H
Outline: as §1

NCI-H2347 = tested on: NCI-H2347
Outline: as §1

HCC-15 = tested on: HCC-15
Outline: as §1

ABC-1 = tested on: ABC-1
Outline: as §1

NCI-H1993 = tested on: NCI-H1993
Outline: as §1

COR-L23 = tested on: COR-L23
Outline: as §1

SW 1573 = tested on: SW 1573
Outline: as §1

LU99A = tested on: LU99A
Outline: as §1

HOP-62 = tested on: HOP-62
Outline: as §1

LC-2-ad = tested on: LC-2-ad
Outline: as §1

NCI-H1651 = tested on: NCI-H1651
Outline: as §1

NCI-H2023 = tested on: NCI-H2023
Outline: as §1

NCI-H1915 = tested on: NCI-H1915
Outline: as §1

NCI-H838 = tested on: NCI-H838
Outline: as §1

NCI-H2085 = tested on: NCI-H2085
Outline: as §1

NCI-H1355 = tested on: NCI-H1355
Outline: as §1

HARA = tested on: HARA
Outline: as §1

PC-14 = tested on: PC-14
Outline: as §1

Compound: CCN(CC)CCCCNc1ncc2cc(-c3cc(OC)cc(OC)c3)c(NC(=O)NC(C)(C)C)nc2n1 + Cc1nc(Nc2ncc(C(=O)Nc3c(C)cccc3Cl)s2)cc(N2CCN(CCO)CC2)n1 [Dasatinib] (partner 0.075 µM)
- relative viability (NCI-H358; first compound 0.01 µM): 0.169
- relative viability (NCI-H358; first compound 0.03162 µM): 0.127
- relative viability (NCI-H358; first compound 0.1 µM): 0.157
- relative viability (NCI-H358; first compound 0.3162 µM): 0.147
- relative viability (NCI-H358; first compound 1 µM): 0.198
- relative viability (NCI-H650; first compound 0.01 µM): 0.368
- relative viability (NCI-H650; first compound 0.03162 µM): 0.454
- relative viability (NCI-H650; first compound 0.1 µM): 0.468
- relative viability (NCI-H650; first compound 0.3162 µM): 0.48
- relative viability (NCI-H650; first compound 1 µM): 0.427
- relative viability (UMC-11; first compound 0.01 µM): 0.541
- relative viability (UMC-11; first compound 0.03162 µM): 0.485
- relative viability (UMC-11; first compound 0.1 µM): 0.722
- relative viability (UMC-11; first compound 0.3162 µM): 0.581
- relative viability (UMC-11; first compound 1 µM): 0.405
- relative viability (NCI-H2126; first compound 0.01 µM): 0.586
- relative viability (NCI-H2126; first compound 0.03162 µM): 0.603
- relative viability (NCI-H2126; first compound 0.1 µM): 0.648
- relative viability (NCI-H2126; first compound 0.3162 µM): 0.77
- relative viability (NCI-H2126; first compound 1 µM): 0.53
- relative viability (EPLC-272H; first compound 0.01 µM): 0.379
- relative viability (EPLC-272H; first compound 0.03162 µM): 1.08
- relative viability (EPLC-272H; first compound 0.1 µM): 0.322
- relative viability (EPLC-272H; first compound 0.3162 µM): 0.294
- relative viability (EPLC-272H; first compound 1 µM): 0.241
- relative viability (NCI-H2347; first compound 0.01 µM): 0.149
- relative viability (NCI-H2347; first compound 0.03162 µM): 0.315
- relative viability (NCI-H2347; first compound 0.1 µM): 0.39
- relative viability (NCI-H2347; first compound 0.3162 µM): 0.288
- relative viability (NCI-H2347; first compound 1 µM): 0.31
- relative viability (HCC-15; first compound 0.01 µM): 0.613
- relative viability (HCC-15; first compound 0.03162 µM): 0.7
- relative viability (HCC-15; first compound 0.1 µM): 0.681
- relative viability (HCC-15; first compound 0.3162 µM): 0.748
- relative viability (HCC-15; first compound 1 µM): 0.554
- relative viability (ABC-1; first compound 0.01 µM): 0.617
- relative viability (ABC-1; first compound 0.03162 µM): 0.541
- relative viability (ABC-1; first compound 0.1 µM): 0.618
- relative viability (ABC-1; first compound 0.3162 µM): 0.548
- relative viability (ABC-1; first compound 1 µM): 0.535
- relative viability (NCI-H1993; first compound 0.01 µM): 0.31
- relative viability (NCI-H1993; first compound 0.03162 µM): 0.604
- relative viability (NCI-H1993; first compound 0.1 µM): 0.611
- relative viability (NCI-H1993; first compound 0.3162 µM): 0.604
- relative viability (NCI-H1993; first compound 1 µM): 0.536
- relative viability (COR-L23; first compound 0.01 µM): 0.527
- relative viability (COR-L23; first compound 0.03162 µM): 0.549
- relative viability (COR-L23; first compound 0.1 µM): 0.546
- relative viability (COR-L23; first compound 0.3162 µM): 0.566
- relative viability (COR-L23; first compound 1 µM): 0.608
- relative viability (SW 1573; first compound 0.01 µM): 0.355
- relative viability (SW 1573; first compound 0.03162 µM): 0.537
- relative viability (SW 1573; first compound 0.1 µM): 0.457
- relative viability (SW 1573; first compound 0.3162 µM): 0.482
- relative viability (SW 1573; first compound 1 µM): 0.326
- relative viability (LU99A; first compound 0.01 µM): 0.508
- relative viability (LU99A; first compound 0.03162 µM): 0.611
- relative viability (LU99A; first compound 0.1 µM): 0.712
- relative viability (LU99A; first compound 0.3162 µM): 0.499
- relative viability (LU99A; first compound 1 µM): 0.445
- relative viability (HOP-62; first compound 0.01 µM): 0.67
- relative viability (HOP-62; first compound 0.03162 µM): 0.726
- relative viability (HOP-62; first compound 0.1 µM): 0.828
- relative viability (HOP-62; first compound 0.3162 µM): 0.707
- relative viability (HOP-62; first compound 1 µM): 0.417
- relative viability (LC-2-ad; first compound 0.01 µM): 0.575
- relative viability (LC-2-ad; first compound 0.03162 µM): 0.679
- relative viability (LC-2-ad; first compound 0.1 µM): 0.73
- relative viability (LC-2-ad; first compound 0.3162 µM): 0.664
- relative viability (LC-2-ad; first compound 1 µM): 0.344
- relative viability (NCI-H1651; first compound 0.01 µM): 0.465
- relative viability (NCI-H1651; first compound 0.03162 µM): 0.448
- relative viability (NCI-H1651; first compound 0.1 µM): 0.486
- relative viability (NCI-H1651; first compound 0.3162 µM): 0.47
- relative viability (NCI-H1651; first compound 1 µM): 0.288
- relative viability (NCI-H2023; first compound 0.01 µM): 0.548
- relative viability (NCI-H2023; first compound 0.03162 µM): 0.675
- relative viability (NCI-H2023; first compound 0.1 µM): 0.657
- relative viability (NCI-H2023; first compound 0.3162 µM): 0.571
- relative viability (NCI-H2023; first compound 1 µM): 0.493
- relative viability (NCI-H1915; first compound 0.01 µM): 0.303
- relative viability (NCI-H1915; first compound 0.03162 µM): 0.306
- relative viability (NCI-H1915; first compound 0.1 µM): 0.361
- relative viability (NCI-H1915; first compound 0.3162 µM): 0.286
- relative viability (NCI-H1915; first compound 1 µM): 0.297
- relative viability (NCI-H838; first compound 0.01 µM): 0.259
- relative viability (NCI-H838; first compound 0.03162 µM): 0.305
- relative viability (NCI-H838; first compound 0.1 µM): 0.307
- relative viability (NCI-H838; first compound 0.3162 µM): 0.305
- relative viability (NCI-H838; first compound 1 µM): 0.246
- relative viability (NCI-H2085; first compound 0.01 µM): 0.251
- relative viability (NCI-H2085; first compound 0.03162 µM): 0.181
- relative viability (NCI-H2085; first compound 0.1 µM): 0.278
- relative viability (NCI-H2085; first compound 0.3162 µM): 0.231
- relative viability (NCI-H2085; first compound 1 µM): 0.216
- relative viability (NCI-H1355; first compound 0.01 µM): 0.775
- relative viability (NCI-H1355; first compound 0.03162 µM): 0.751
- relative viability (NCI-H1355; first compound 0.1 µM): 0.746
- relative viability (NCI-H1355; first compound 0.3162 µM): 0.775
- relative viability (NCI-H1355; first compound 1 µM): 0.663
- relative viability (HARA; first compound 0.01 µM): 0.284
- relative viability (HARA; first compound 0.03162 µM): 0.246
- relative viability (HARA; first compound 0.1 µM): 0.312
- relative viability (HARA; first compound 0.3162 µM): 0.142
- relative viability (HARA; first compound 1 µM): 0.237
- relative viability (PC-14; first compound 0.01 µM): 0.263
- relative viability (PC-14; first compound 0.03162 µM): 0.268
- relative viability (PC-14; first compound 0.1 µM): 0.276
- relative viability (PC-14; first compound 0.3162 µM): 0.264
- relative viability (PC-14; first compound 1 µM): 0.162

— the supplement of paper PMC10307832
